Publication PMC5889410, “Design and Biological Evaluation of Antifouling Dihydrostilbene Oxime Hybrids” (Marine Biotechnology (New York, N.y.), 2018)
Where two headings read alike, the source gives them in different places.

Assays:
Halamphora coffeaeformis [1] = details: cited from earlier work
Vibrio carchariae [2] = details: cited from earlier work
Vibrio aestuarianus [3] = details: cited from earlier work
Roseobacter litoralis = details: cited from earlier work
[4] = system: Pseudoalteromonas elyakovii; details: cited from earlier work
Vibrio carchariae [5] = details: cited from earlier work; remark: listed apart in the source
Vibrio harveyi [6] = details: cited from earlier work
Halamphora coffeaeformis [7] = details: cited from earlier work; remark: listed apart in the source
Porphyridium purpureum [8] = details: cited from earlier work
Cylindrotheca closterium [9] = details: cited from earlier work
Shewanella putrefaciens = details: cited from earlier work
Vibrio proteolyticus [10] = details: cited from earlier work
[11] = system: Balanus improvisus cyprid larvae; details: cited from earlier work
marine bacteria = details: panel of marine bacteria; ref Moodie et al. [2017b]; cited from earlier work
[12] = system: Pleurochrysis roscoffensis; details: cited from earlier work
Halomonas aquamarina [13] = details: cited from earlier work
Vibrio natriegens = details: cited from earlier work
Halomonas aquamarina [14] = details: cited from earlier work; remark: listed apart in the source
Cylindrotheca closterium [15] = details: cited from earlier work; remark: listed apart in the source
Vibrio harveyi [16] = details: cited from earlier work; remark: listed apart in the source
Ciona savignyi = system: Ciona savignyi; parameters: method as in Moodie et al. [2017b]; details: ref Moodie et al. [2017b], cited from earlier work
Vibrio aestuarianus [17] = details: cited from earlier work; remark: listed apart in the source
Porphyridium purpureum [18] = details: cited from earlier work; remark: listed apart in the source
Vibrio proteolyticus [19] = details: cited from earlier work; remark: listed apart in the source
[20] = system: Pleurochrysis roscoffensis; details: cited from earlier work; remark: listed apart in the source
[21] = system: Balanus improvisus cyprid larvae; assay: whole plant or invertebrate; format: in vivo; details: Amphibalanus improvisus, 120 h, read-out: IC50 (cyprid settlement inhibition)
Excerpt: Cyprid larvae of B. improvisus were reared in a laboratory cultivating system at Tjärnö Marine Biological Laboratory, University of Gothenburg, Sweden, as previously described by Berntsson et al. ([2000]). Four pure, but non-axenic, marine microalgae (obtained from Algobank, Caen, France) and 10 marine bacterial strains were used (Table 1) as representative microfoulers. These strains represent fouling species encountered in both estuarine and marine environments (Moodie et al. [2017b]). The bacteria were grown at 26 °C in a marine medium, composed of 0.5% peptone (neutralized bacteriological peptone, Oxoid Ltd.) in filtered (Whatman 1001–270, pore size 11 μm) natural seawater. Microalgae were grown and maintained at 22 °C in F/2 medium.
Stock solutions of compounds in DMSO were serially diluted in untreated polystyrene Petri dishes containing 10 mL of filtered (0.2 μm) seawater, affording final concentrations ranging from 0.1 to 10 μg/mL. Freshly molted balanide cyprids (18–22) were added to each Petri dish and incubated at ambient temperature (20–25 °C) for 5 days. Cyprid metamorphosis was assessed using a dissecting microscope where the numbers of juvenile settled, free-swimming, and dead cyprids were noted. Initial compound screening was conducted at 5 μg/mL, and full IC50 determination was performed only on compounds displaying > 50% inhibition at that concentration. The IC50 was defined as the concentration preventing 50% of the cyprid settlement on the Petri dish surface. Each concentration was replicated four times (n = 4), and dishes containing 0.1% of DMSO were used as negative controls. The commercial AF agent Sea-nine™ was employed as a positive control.

COc1ccc(CCc2ccccc2)cc1OC [Compound 2]
low toxicity: toxicity, in words ([11]; Balanus improvisus, ref Moodie et al. [2017b]) | toxicity, in words (Ciona savignyi)
inactive: Activity against bacterial adhesion (marine bacteria)
1.1 µg/mL: IC50 (settlement inhibition) (Ciona savignyi)
0.1 µg/mL: MIC against the growth of marine bacteria, S.p. (Shewanella putrefaciens; ref Moodie et al. ([2017b])) | MIC against the adhesion (A) of microalgae, C. closterium (Cylindrotheca closterium [15]; ref Moodie et al. ([2017b]))
– (Not active at > 10 μg/mL): MIC against the adhesion of marine bacteria, V.c. (Vibrio carchariae [2]; ref Moodie et al. ([2017b])) | MIC against the growth of marine bacteria, V.c. (Vibrio carchariae [5]; ref Moodie et al. ([2017b])) | MIC against the growth of marine bacteria, V.h. (Vibrio harveyi [6]; ref Moodie et al. ([2017b])) | MIC against the adhesion of marine bacteria, V.p. (Vibrio proteolyticus [10]; ref Moodie et al. ([2017b])) | MIC against the growth of marine bacteria, V.n. (Vibrio natriegens; ref Moodie et al. ([2017b])) | MIC against the adhesion of marine bacteria, H.a. (Halomonas aquamarina [14]; ref Moodie et al. ([2017b])) | MIC against the adhesion of marine bacteria, V.h. (Vibrio harveyi [16]; ref Moodie et al. ([2017b])) | MIC against the adhesion of marine bacteria, V.a. (Vibrio aestuarianus [17]; ref Moodie et al. ([2017b])) | MIC against the growth of marine bacteria, V.p. (Vibrio proteolyticus [19]; ref Moodie et al. ([2017b]))
effectively inhibited: inhibition of settlement, in words (Ciona savignyi; even after 5 days)
0.75 µg/mL: IC50 (cyprid settlement inhibition) ([11]; B. improvisus, ref Moodie et al. ([2017b]))
1 µg/mL: MIC against the adhesion (A) of microalgae, H. coffeaformis (Halamphora coffeaeformis [1]; ref Moodie et al. ([2017b])) | MIC against the adhesion (A) of microalgae, P. roscoffensis ([12]; ref Moodie et al. ([2017b])) | MIC against the growth (G) of microalgae, P. purpureum (Porphyridium purpureum [18]; ref Moodie et al. ([2017b]))
5.3%: Toxicity (%) (dead cyprids) ([11]; B. improvisus, reported at 5 μg/mL, ref Moodie et al. ([2017b]))
0.01 µg/mL: MIC against the growth (G) of microalgae, H. coffeaformis (Halamphora coffeaeformis [7]; ref Moodie et al. ([2017b])) | MIC against the growth (G) of microalgae, C. closterium (Cylindrotheca closterium [9]; ref Moodie et al. ([2017b])) | MIC against the growth of marine bacteria, H.a. (Halomonas aquamarina [13]; ref Moodie et al. ([2017b])) | MIC against the growth (G) of microalgae, P. roscoffensis ([20]; ref Moodie et al. ([2017b]))
10 µg/mL: MIC against the growth of marine bacteria, V.a. (Vibrio aestuarianus [3]; ref Moodie et al. ([2017b])) | MIC against the growth of marine bacteria, R.l. (Roseobacter litoralis; ref Moodie et al. ([2017b])) | MIC against the growth of marine bacteria, P.e. ([4]; ref Moodie et al. ([2017b])) | MIC against the adhesion (A) of microalgae, P. purpureum (Porphyridium purpureum [8]; ref Moodie et al. ([2017b]))

CCCCCCCCn1sc(Cl)c(Cl)c1=O [Sea-nine™]
< 0.01 µg/mL: MIC against the adhesion (A) of microalgae, H. coffeaformis (Halamphora coffeaeformis [1]; ref Trepos et al. ([2015])) | MIC against the adhesion of marine bacteria, V.c. (Vibrio carchariae [2]; ref Trepos et al. ([2015])) | MIC against the growth of marine bacteria, V.a. (Vibrio aestuarianus [3]; ref Trepos et al. ([2015])) | MIC against the growth of marine bacteria, V.c. (Vibrio carchariae [5]; ref Trepos et al. ([2015])) | MIC against the growth (G) of microalgae, H. coffeaformis (Halamphora coffeaeformis [7]; ref Trepos et al. ([2015])) | MIC against the adhesion (A) of microalgae, P. purpureum (Porphyridium purpureum [8]; ref Trepos et al. ([2015])) | MIC against the growth (G) of microalgae, C. closterium (Cylindrotheca closterium [9]; ref Trepos et al. ([2015])) | MIC against the adhesion (A) of microalgae, P. roscoffensis ([12]; ref Trepos et al. ([2015])) | MIC against the adhesion of marine bacteria, H.a. (Halomonas aquamarina [14]; ref Trepos et al. ([2015])) | MIC against the adhesion (A) of microalgae, C. closterium (Cylindrotheca closterium [15]; ref Trepos et al. ([2015])) | MIC against the growth (G) of microalgae, P. purpureum (Porphyridium purpureum [18]; ref Trepos et al. ([2015])) | MIC against the growth (G) of microalgae, P. roscoffensis ([20]; ref Trepos et al. ([2015]))
0.25 µg/mL: IC50 [21]
0.01 µg/mL: MIC against the adhesion of marine bacteria, V.p. (Vibrio proteolyticus [10]; ref Trepos et al. ([2015])) | MIC against the growth of marine bacteria, V.p. (Vibrio proteolyticus [19]; ref Trepos et al. ([2015]))
0.1 µg/mL: MIC against the growth of marine bacteria, P.e. ([4]; ref Trepos et al. ([2015])) | MIC against the growth of marine bacteria, H.a. (Halomonas aquamarina [13]; ref Trepos et al. ([2015]))
1 µg/mL: MIC against the growth of marine bacteria, R.l. (Roseobacter litoralis; ref Trepos et al. ([2015])) | MIC against the growth of marine bacteria, V.h. (Vibrio harveyi [6]; ref Trepos et al. ([2015])) | MIC against the growth of marine bacteria, S.p. (Shewanella putrefaciens; ref Trepos et al. ([2015])) | MIC against the growth of marine bacteria, V.n. (Vibrio natriegens; ref Trepos et al. ([2015])) | MIC against the adhesion of marine bacteria, V.h. (Vibrio harveyi [16]; ref Trepos et al. ([2015])) | MIC against the adhesion of marine bacteria, V.a. (Vibrio aestuarianus [17]; ref Trepos et al. ([2015]))
